In patent US20260363251A1 (priority 2022, published 2026):
Like-named read-outs stand apart in the source and are kept apart here. Numbered stars: 1 amine (or outer) side, 2 acyl side, 3 side chain; on linkers, the order of the positions; unused ones are H or OH. Bridge positions count the residues as written; N and C are the ends. Square brackets hold non-standard residues; d marks the D form. Peptide text beside a SMILES is read from it. * marks the point of attachment. Tridecanoyl(12-Me) = CC(C)CCCCCCCCCCC(=O)*; X1 = NC(=O)CC(O)C(N[*:1])C(=O)[*:2]; NMeF = CN[CH](Cc1ccccc1)C(=O)O; NMeN = CN[CH](CC(N)=O)C(=O)O; X2 = CCC(C)CCCCCCCCCCC(=O)*

What was measured:
[1] = Solubility in water or DMSO
Fusarium culmorum = assay: Seed treatment, soilborne Fusarium culmorum in wheat under semi-field conditions (Example 4.1B); assay type: in vivo; conditions: Celest FS025, 5 g ai per 100 kg seeds; plant emergence vs infected control
Aphanomyces cochlioides = assay: Seed treatment, soilborne Aphanomyces cochlioides in sugar beet in the greenhouse (Example 4.3); assay type: in vivo, Aphanomyces cochlioides strain K-9164; conditions: Tachigaren WS070; damping off vs infected control
Pyricularia oryzae = assay type: in vivo; conditions: 1 d preventive, 400 L/ha
Rhizoctonia solani = assay: Treatment of sheath blight on rice (Table 11); conditions: 1 d preventive, 400 L/ha
[2] = dmso, organic solvent or mixture

For `CC(C)CCCCCCCCCCC(=O)NC1C(=O)NC(CC(=O)O)C(=O)NC(C(O)CC(N)=O)C(=O)NC(CO)C(=O)N(C)C(CC(N)=O)C(=O)N(C)C(Cc2ccccc2)C(=O)NC(CCC(N)=O)C(=O)NC(CCC(=O)O)C(=O)OC1C` (stereo not drawn) [Formula II (a) Lipopeptide 1204] ({Tridecanoyl(12-Me)}-TD[X1]S[NMeN][NMeF]QE; ester 1-C; configuration not given here), which solubility [1, 2] is on record?
Its solubility is greater than 10000 µg/mL.

And the solubility ([1]; water, pH 2.08, water)?
Its solubility is 21.4 µg/mL.

For `N#Cc1c[nH]cc1-c1cccc2c1OC(F)(F)O2` [Fludioxonil], which “activity (%)” value (Fusarium culmorum) is on record?
The value was 93%.

With `CCC(C)CCCCCCCCCCC(=O)NC1C(=O)NC(CC(=O)O)C(=O)NC(C(O)CC(N)=O)C(=O)NC(CO)C(=O)N(C)C(CC(N)=O)C(=O)N(C)C(Cc2ccccc2)C(=O)NC(CCC(N)=O)C(=O)NC(CCC(=O)O)C(=O)OC1C` (stereo not drawn) [Formula II (b) Lipopeptide 1218] (X2-TD[X1]S[NMeN][NMeF]QE; ester 1-C; configuration not given here) as the compound, how does the solubility [1, 2] read?
Its solubility is greater than 10000 µg/mL.

Which “activity (%)” value (Aphanomyces cochlioides) does the source give for `Cc1cc(O)no1` [Hymexazol] here?
The value was 74%.

With `CCCC1COC(Cn2cncn2)(c2ccc(Cl)cc2Cl)O1` (stereo not drawn) [Propiconazole] as the compound, how does the “disease symptom reduction (%) vs. Untreated” value (Pyricularia oryzae; 5 g/ha) read?
The value was 17%.

What about the “disease symptom reduction (%) vs. Untreated” value (Pyricularia oryzae; 14 g/ha) of the same compound?
The value was 38%.

What about the “disease symptom reduction (%) vs. Untreated” value (Pyricularia oryzae; 42 g/ha) of the same compound?
The value was 79%.

What about the “disease symptom reduction (%) vs. Untreated” value (Pyricularia oryzae; 125 g/ha) of the same compound?
Its value is 92%.

With `CC(=O)NC1C(OCC(OC2OC(CO)C(O)C(O)C2O)C2OC(OC3C(O)C(CO)OC(OC4(CO)OC(C(O)CO)C(O)C4OC4OC(CO)C(O)C(O)C4O)C3O)C(O)C(O)C2OC2OC(C(O)CO)C(O)C(O)C2OC2OCC(OC(N)=O)C(O)C2O)OC(CO)C(O)C1O` (stereo not drawn) [compound I] as the compound, how does the solubility [1, 2] read?
Its solubility is greater than 9770 µg/mL.

With `CO/C=C(/C(=O)OC)c1ccccc1Oc1cc(Oc2ccccc2C#N)ncn1` [Azoxystrobin] as the compound, how does the “disease symptom reduction (%) vs. Untreated” value (Pyricularia oryzae; 3 g/ha) read?
The value was 92%.

And the “disease symptom reduction (%) vs. Untreated” value (Pyricularia oryzae; 9 g/ha)?
Its value is 85%.

And the “disease symptom reduction (%) vs. Untreated” value (Pyricularia oryzae; 28 g/ha)?
Its value is 96%.

What about the “disease symptom reduction (%) vs. Untreated” value (Pyricularia oryzae; 83 g/ha) of the same compound?
Its value is 92%.

What about the “disease symptom reduction (%) vs. Untreated” value (Rhizoctonia solani; 3 g/ha) of the same compound?
Its value is 62%.

And the “disease symptom reduction (%) vs. Untreated” value (Rhizoctonia solani; 9 g/ha)?
Its value is 86%.

What about the “disease symptom reduction (%) vs. Untreated” value (Rhizoctonia solani; 28 g/ha) of the same compound?
Its value is 81%.

And the “disease symptom reduction (%) vs. Untreated” value (Rhizoctonia solani; 83 g/ha)?
Its value is 86%.
